Results reported in patent US20260355239A1, “COMBINATION OF A T CELL THERAPY AND CONTINUOUS OR INTERMITTENT DGK INHIBITOR DOSING” (Juno Therapeutics, Inc., priority 2022, published 2026).

Assays:
[1] = test system: anti-CD19 CAR-T cells with K562.CD19, Granta-519 and Raji cells; experiment: Cytokine production of chronically stimulated, concurrently treated CAR-T cells, 2D co-culture; format: cell-based, human; conditions: concurrent treatment during chronic stimulation; 2D re-challenge, 48 h
Method: (§1) To simulate conditions of chronic stimulation, approximately 20,000 anti-CD19 CAR-expressing T cells of a combined CAR-T cell composition produced as described in Example 2 from two healthy adult donors were incubated with 30 µg/mL of plate-bound CAR-specific anti-idiotypic antibody (see, e.g., WO2018/023100) at 37 °C for a period of seven days. During this seven-day period, engineered CAR T cells were concurrently treated with Compound 17(0.1-1000 nM) or a vehicle control added at day 0.
Stimulated CAR T cells were then re-challenged with CD19-expressing tumor cells or tumor spheroids in the absence of Compound 17, and cytolytic activity and cytokine production were assessed.
To assess cytolytic function, the stimulated CAR-T cell composition was co-cultured with various CD19-expressing lymphoma cells at a 2.5:1 effector:target ratio. The tumor cells were engineered to express NucLight Red (NLR) and tumor cell number was monitored by Incucyte®. […] Duplicate values for cell compositions manufactured from the two different healthy donors are shown.
Supernatant was collected after 48 hours from the above co-cultures of chronically stimulated CAR-expressing T cells and CD19-expressing tumor cells. Cytokine production was measured from the supernatant by meso scale discovery (MSD) analysis of the collected cell supernatants. […]

[2] = test system: Granta-519 tumor spheroids; experiment: Rescue treatment: cytolytic activity of chronically stimulated CAR-T cells, 3D spheroids, Granta-519; format: cell-based, human; conditions: day 9
[3] = test system: Nalm6 leukemia tumor cells; experiment: In vivo anti-tumor effect with CAR T cells, Nalm6-rFluc NSG mice (Example 10)
Method: The in vivo anti-tumor effects of a continuous Compound 17 dosing regimen in combination with anti-CD19 CAR T cells were assessed in a second CD19-expressing tumor model.

anti-CD19 CAR-T cells [4] = experiment: CAR-T cell proliferation during stimulation (Incucyte); format: cell-based, human; conditions: 30 μg/mL plate-bound anti-idiotypic antibody, seven days
Excerpt: T cell compositions containing T cells expressing an exemplary anti-CD19 CAR were generated from leukapheresis samples from two healthy human adult donors by a process that included immunoaffinity-based selection of T cells by separately selecting CD4+ and CD8+ cells from the samples, resulting in two compositions enriched for CD4+ and CD8+ cells, respectively, per donor. Cells of the enriched CD4+ and CD8+ compositions were separately activated with anti-CD3/anti-CD28 beads and subjected to lentiviral transduction with a vector encoding an anti-CD19 CAR. […]
Prior to use, the cryopreserved CD4+ and CD8+ CAR-engineered cell compositions were thawed and combined at approximately a 1:1 CD4:CD8 ratio for each donor to prepare a combined CD4+ CAR+ and CD8+ CAR+ T cell composition. The effects of treatment with Compound 17 at various concentrations (0.1 nM, 1 nM, 10 nM, 100 nM, or 1000 nM) added at day 0 during stimulation of the combined CAR-T cell composition with a plate-bound CAR-specific anti-idiotypic antibody (see, e.g., WO2018/023100) or during co-culture with CD19-expressing cells was then assessed.
T cell proliferation during stimulation with 30 μg/mL of plate-bound anti-CAR anti-idiotypic antibody in the presence of Compound 17 was monitored for seven days using an Incucyte imaging system. […]

anti-CD19 CAR T cells = experiment: In vivo expansion and/or persistence of CAR T cells from different donors, Raji-rFluc NSG mice (Example 8); conditions: 0.3 mg/kg oral once daily Days 1-7, four donors, vs CAR T cells alone
Method: The effects of Compound 17 administration on in vivo expansion and/or persistence of CAR T cells produced from different healthy donors were assessed.

anti-CD19 CAR-T cells [5] = experiment: Phenotype of chronically stimulated CAR-T cells concurrently treated; format: cell-based, human; conditions: concurrent treatment 0.1-1000 nM, chronic stimulation 7 days
Excerpt: T cell compositions containing T cells expressing an exemplary anti-CD19 CAR were generated from leukapheresis samples from two healthy human adult donors by a process that included immunoaffinity-based selection of T cells by separately selecting CD4+ and CD8+ cells from the samples, resulting in two compositions enriched for CD4+ and CD8+ cells, respectively, per donor. Cells of the enriched CD4+ and CD8+ compositions were separately activated with anti-CD3/anti-CD28 beads and subjected to lentiviral transduction with a vector encoding an anti-CD19 CAR. The anti-CD19 CAR contained an anti-CD19 single-chain variable fragment (scFv) derived from a murine antibody (variable region derived from FMC63), an immunoglobulin-derived spacer, a transmembrane domain derived from CD28, a costimulatory region derived from 4-1BB, and a CD3-zeta intracellular signaling domain. The expression construct in the viral vector further contained sequences encoding a surrogate surface marker for CAR expression, which was separated from the CAR-encoding sequence by a T2A ribosome skip sequence. Transduced CD4+ or CD8+ T cell populations then were separately incubated in the presence of stimulating reagents for cell expansion. Expanded CD4+ and CD8+ cells were formulated and cryopreserved separately and stored. […]

[6] = test system: A549.CD19 tumor spheroids; experiment: Rescue treatment: cytolytic activity of chronically stimulated CAR-T cells, 3D spheroids, A549.CD19; format: cell-based, human; conditions: day 9
Raji cells = experiment: Rescue treatment: cytolytic activity of chronically stimulated CAR-T cells, 2D, Raji; format: cell-based, human; conditions: higher concentrations, 2D co-culture
Method: Anti-CD19 CAR-expressing T cells, produced as described in Example 2, were chronically stimulated with plate-bound CAR-specific anti-idiotypic antibody for seven days as described in Example 3, but in the absence of Compound 17 during chronic stimulation. Instead, chronically stimulated CAR T cells were treated with Compound 17 during re-challenge with CD19-expressing tumor cells, after which cytolytic activity and cytokine production were assessed.
The chronically stimulated CAR-T cells were incubated with various CD19-expressing lymphoma cells at a 2.5:1 effector:target ratio in the presence of DGKi (0-1000 nM). The tumor cells were labeled with NucLight Red (NLR) and tumor cell number was monitored by Incucyte®.

[7] = test system: A549.CD19 and Granta-519 tumor spheroids; experiment: Cytolytic activity of chronically stimulated, concurrently treated CAR-T cells, 3D spheroids; format: cell-based, human; conditions: concurrent treatment during chronic stimulation, day 9
Method: as §1
To further assess activity of chronically stimulated cell, the chronically stimulated CAR-T cells that had been concurrently treated with DGKi were incubated with A549 CD19+ tumor spheroids or Granta-519 tumor spheroids to rechallenge the CAR-T cells at an effector to target ratio of 1:2 for up to 14 days. The tumor spheroids were engineered to express a red fluorescent dye to permit monitoring of tumor cell lysis by microscopy during the assay.
The antigen-specific cytolytic activity of the chronically stimulated CAR-expressing T cells was assessed by monitoring fluorescence (indicative of tumor cell lysis) over time. The tumor volume (normalized to time zero) was measured as the number of red calibrated units (RCU)×μm^2 area. […] Duplicate values for cell compositions manufactured from the two different healthy donors are shown.

[8] = 0.3 mg/kg oral once daily Days 1-30 with 1×10^6 CAR T cells, vs CAR T cells or Compound 17 alone

CC[C@H]1CN([C@@H](CC)c2ccc(C(F)(F)F)cc2)[C@H](CC)CN1c1nc(=O)n(C)c2ccc(C#N)nc12 [Compound 17, 4-((2S,5R)-2,5-diethyl-4-((S)-1-(4-(trifluoromethyl)phenyl)propyl)piperazin-1-yl)-1-methyl-2-oxo-1,2-dihydropyrido[3,2-d]pyrimidine-6-carbonitrile]
production of IFNγ, IL-2 and TNFα [1]: dose-dependent increase in production of all three cytokines | cytolytic activity of CAR T cells against Granta-519 spheroids [2]: improved the cytolytic activity of CAR T cells against both A549.CD19 and Granta-519 tumor spheroids | CAR T cell expansion and/or persistence ([3]; 0.3 mg/kg oral once daily Days 1-30 following CAR T cells): increased CAR T cell expansion and/or persistence | survival [3, 8]: improved survival | tumor burden [3, 8]: lowered tumor burden | tumor suppression (tumor control index) ([3]; 0.3 mg/kg with CAR T cells, vs CAR T cells alone): enhanced tumor suppression | tumor burden vs historical CAR T cell data ([3]; 0.3 mg/kg with CAR T cells, vs separate previous experiments without Compound 17): lower tumor burden than the mice in the separate previous experiments | single-agent effects ([3]; 0.3 or 0.6 mg/kg oral once daily Days 1-30, without CAR T cells): No single-agent effects of Compound 17 were observed | T cell proliferation (% confluence) (anti-CD19 CAR-T cells [4]): did not affect T cell proliferation | CAR T cell expansion and/or persistence (anti-CD19 CAR T cells): CAR T cell expansion and/or persistence was increased in all mice | populations of highly activated CAR-T cells (CD69 and PD-1 high) (anti-CD19 CAR-T cells [5]): increased populations of highly activated CAR-T cells | cytolytic activity of CAR T cells against A549.CD19 spheroids [6]: improved the cytolytic activity of CAR T cells against both A549.CD19 and Granta-519 tumor spheroids | cytolytic activity of CAR T cells against Raji cells (Raji cells): not Raji cells | cytolytic activity of CAR T cells (normalized tumor volume) [7]: modestly reduced the cytolytic activity of the CAR T cells
